Source: ChEMBL document CHEMBL1150873, “A new lysine derivative and new 3-bromopyrrole carboxylic acid derivative from two marine sponges” (J Nat Prod, 1998)
Converted amounts (≈) assume the structure as drawn.

Assays:
Artemia = test: (§1) Toxicity in brine shrimp; assay type: organism-based; conditions: in vivo
[1] = as §1; assay type: organism-based; conditions: artemia, in vivo
P388 = test: Cytotoxicity against mouse P388 cells; assay type: functional, cell-based

SMILES | Activity (Artemia) | LC50 [1] | IC50 (P388)
O=C1CCNC(=O)c2[nH]c(Br)cc21 | Not Active |  | 
C=C(C)[C@H]1CCC[C@@]2(C)CCC[C@@](C)(SC#N)[C@@H]12 |  | 50 µg/mL (≈ 190 µM) | 
O=C1NCC(O)n2cc(Br)cc21 (stereo not drawn) | Not Active |  | 
O=C(O)/C1=N/CCCC[C@@H](C(=O)O)N1 | Not Active |  | 
C=C(C)[C@H]1CCC[C@@]2(C)CCC[C@@](C)(NC=O)[C@@H]12 |  | 50 µg/mL (≈ 200 µM) | 1.2 µg/mL (≈ 4.81 µM)
[C-]#[N+][C@]1(C)CCC[C@]2(C)CCC[C@H](C(=C)C)[C@@H]21 |  |  | 8.3 µg/mL (≈ 35.9 µM)
O=C1CCNC(=O)c2[nH]ccc21 [ALDISIN] | Not Active |  | 
